Reference: patent US20260308145A1, “CDK2 INHIBITORS AND METHODS OF USING SAME” (Shenzhen lonova Life Science Co., Ltd., priority 2023, published 2026)

Legend:
Assay type in all cases: biochemical
CDK6/cyclinD3 = target: T1, CDK6/cyclinD3 (Homo sapiens, UniProt Q00534); assay: Cyclin-dependent kinase activity assay (continuous ATP coupling assay), CDK6/cyclinD3; conditions: CDK6/cyclinD3 25 nM, ATP 500 μM, Rb copeptide 500 μM, 15 min preincubation, pH 7.5, 1% DMSO
T1 construct: purchased Carna Biosciences 04-107
T1 sequence (Q00534 whole entry): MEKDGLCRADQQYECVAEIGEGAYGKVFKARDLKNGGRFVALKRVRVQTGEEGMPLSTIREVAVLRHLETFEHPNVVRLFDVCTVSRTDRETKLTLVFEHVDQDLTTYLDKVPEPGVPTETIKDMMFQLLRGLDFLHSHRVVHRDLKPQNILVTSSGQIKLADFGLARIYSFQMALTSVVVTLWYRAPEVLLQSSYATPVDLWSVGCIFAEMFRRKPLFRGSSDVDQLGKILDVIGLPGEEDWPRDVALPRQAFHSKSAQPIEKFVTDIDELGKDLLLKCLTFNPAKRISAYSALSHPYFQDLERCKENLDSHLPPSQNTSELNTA
T1 sequence (P30281 whole entry partner): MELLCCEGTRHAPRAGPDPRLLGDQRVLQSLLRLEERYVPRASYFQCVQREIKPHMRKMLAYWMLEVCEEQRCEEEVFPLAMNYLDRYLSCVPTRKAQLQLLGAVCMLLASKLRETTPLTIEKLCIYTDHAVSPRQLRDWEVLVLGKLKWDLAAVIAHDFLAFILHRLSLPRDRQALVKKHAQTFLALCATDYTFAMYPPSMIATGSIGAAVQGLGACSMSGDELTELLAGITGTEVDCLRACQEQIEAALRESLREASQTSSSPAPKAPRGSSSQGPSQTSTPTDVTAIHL
Protocol: (§1) Cyclin-dependent kinase activity assay was measured by continuous ATP coupling assay in which ADP generated by kinase catalyzed phosphorylation was converted back to ATP by consuming phosphoenolpyruvate (PEP) and NADH catalyzed by pyruvate kinase/lactate dehydrogenase (PK/LDH). The assay compositions (see, Table 1) consist of one of the kinases, including CDK1/cyclinB1, CDK2/cyclinE1, CDK4/cyclinD3, and CDK6/cyclinD3 at the designated concentration, ATP at the corresponding Km of the kinase, copeptide and the ATP coupling system of PEP, NADH and PK/LDH. The assay was conducted in a reaction buffer of 20 mM Tris (pH 7.5) with 50 mM NaCl, 0.5 mM DTT and 0.04% BSA, and results were monitored continuously by fluorescence decrease of NADH with excitation at 340 nm and emission at 460 nm. Linear regression of the resulting reaction time traces gave reaction velocities.
(§2) For inhibition assay, compounds were first serial diluted in a 1:3 ratio from 10 μM to 0.05 nM using 10× reaction buffer. One of the CDK kinase was then introduced to compounds solution and incubated for 15 min. Finally, the compositions of ATP coupling system were introduced to the resulting solution to initiate the reaction. The final reaction mixture was in 1× reaction assay buffer with 1% DMSO. The half-maximal inhibition concentrations (IC50) for compounds were determined by fitting the plots of reaction velocity against compound concentration with 4-variable IC50 equation. The inhibition constants (Ki) were determined by fitting the same plots with quadratic/Morrison equation. Data were analyzed using commercially available software Graphpad Prism.
(§3) Exemplary results are presented as calculated IC50 values. • A: IC50≤10 nM • B: IC50>10 nM and IC50<100 nM • C: IC50≥100 nM

CDK4/cyclinD3 = target: T2, CDK4/cyclinD3 (Homo sapiens, UniProt P11802); assay: Cyclin-dependent kinase activity assay (continuous ATP coupling assay), CDK4/cyclinD3; conditions: CDK4/cyclinD3 60 nM, ATP 500 μM, Rb copeptide 500 μM, 15 min preincubation, pH 7.5, 1% DMSO
T2 construct: purchased Carna Biosciences 04-105
T2 sequence (P11802 whole entry): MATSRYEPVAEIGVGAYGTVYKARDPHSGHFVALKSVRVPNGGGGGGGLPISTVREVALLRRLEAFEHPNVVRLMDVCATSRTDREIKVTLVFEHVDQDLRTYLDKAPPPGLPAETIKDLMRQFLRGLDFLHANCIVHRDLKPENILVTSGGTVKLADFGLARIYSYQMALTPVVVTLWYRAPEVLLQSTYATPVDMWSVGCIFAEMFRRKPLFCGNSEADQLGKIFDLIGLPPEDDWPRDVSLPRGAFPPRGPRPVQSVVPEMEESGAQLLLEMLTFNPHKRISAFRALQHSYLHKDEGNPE
T2 sequence (P30281 whole entry partner): as the sequence (P30281 whole entry partner) above
Protocol: as §1, §2, §3

CDK2/cyclinE1 = target: T3, CDK2/cyclinE1 (Homo sapiens, UniProt P24941); assay: Cyclin-dependent kinase activity assay (continuous ATP coupling assay), CDK2/cyclinE1; conditions: CDK2/cyclinE1 5 nM, ATP 300 μM, Rb copeptide 100 μM, 15 min preincubation, pH 7.5, 1% DMSO
T3 construct: purchased Carna Biosciences 04-165
Protocol: as §1, §2, §3

CDK1/cyclinB1 = target: T4, CDK1/cyclinB1 (Homo sapiens, UniProt P06493); assay: Cyclin-dependent kinase activity assay (continuous ATP coupling assay), CDK1/cyclinB1; conditions: CDK1/cyclinB1 10 nM, ATP 200 μM, Histone1 copeptide 100 μM, 15 min preincubation, pH 7.5, 1% DMSO
T4 construct: purchased Carna Biosciences 04-102
T4 sequence (P06493 whole entry): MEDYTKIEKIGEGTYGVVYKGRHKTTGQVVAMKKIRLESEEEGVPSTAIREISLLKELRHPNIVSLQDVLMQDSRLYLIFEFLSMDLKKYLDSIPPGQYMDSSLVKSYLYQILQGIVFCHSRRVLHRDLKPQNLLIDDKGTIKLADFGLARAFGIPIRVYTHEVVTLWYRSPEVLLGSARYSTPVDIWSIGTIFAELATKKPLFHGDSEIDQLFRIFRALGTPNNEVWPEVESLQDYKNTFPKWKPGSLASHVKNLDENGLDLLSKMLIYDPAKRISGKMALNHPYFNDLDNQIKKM
T4 sequence (P14635 whole entry partner): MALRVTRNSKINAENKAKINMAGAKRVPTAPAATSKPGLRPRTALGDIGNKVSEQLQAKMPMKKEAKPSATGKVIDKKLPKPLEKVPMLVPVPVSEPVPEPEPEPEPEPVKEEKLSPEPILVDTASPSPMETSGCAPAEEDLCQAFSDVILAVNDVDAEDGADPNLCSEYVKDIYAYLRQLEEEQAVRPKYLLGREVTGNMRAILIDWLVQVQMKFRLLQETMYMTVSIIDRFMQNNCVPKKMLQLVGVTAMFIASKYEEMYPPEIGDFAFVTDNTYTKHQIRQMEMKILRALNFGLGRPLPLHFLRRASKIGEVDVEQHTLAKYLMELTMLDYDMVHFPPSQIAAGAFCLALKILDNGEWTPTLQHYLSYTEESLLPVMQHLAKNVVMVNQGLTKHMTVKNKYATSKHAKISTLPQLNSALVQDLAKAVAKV
Protocol: as §1, §2, §3

SMILES	IC50 (CDK6/cyclinD3)	IC50 (CDK4/cyclinD3)	IC50 (CDK2/cyclinE1)	IC50 (CDK1/cyclinB1)
CNS(=O)(=O)c1ccc(Nc2ncc(C(F)(F)F)c(-n3cc(C[C@H](C)O)cn3)n2)cc1 (single isomer, unassigned) [Example 6]	10 to 100 nM	10 to 100 nM	≤ 10 nM	10 to 100 nM
CC(C)(O)Cc1cnn(-c2nc(N[C@@H]3CCOC[C@H]3O)ncc2C(F)(F)F)c1 (single isomer, unassigned) [Example 8]	10 to 100 nM	10 to 100 nM	≥ 100 nM	≥ 100 nM
CC(C)(O)Cc1cnn(-c2nc(N[C@H]3CCOC[C@@H]3O)ncc2C(F)(F)F)c1 (single isomer, unassigned) [Example 9]	≥ 100 nM	≥ 100 nM	≥ 100 nM	≥ 100 nM
CNS(=O)(=O)c1ccc(Nc2ncc(C(F)(F)F)c(-n3cc([C@@H]4CCC[C@H]4O)cn3)n2)cc1 (single isomer, unassigned) [Example 74]	≥ 100 nM	10 to 100 nM	10 to 100 nM	≥ 100 nM
CNS(=O)(=O)c1ccc(Nc2ncc(C(F)(F)F)c(-n3cc([C@H]4CCC[C@@H]4O)cn3)n2)cc1 (single isomer, unassigned) [Example 75]	≥ 100 nM	10 to 100 nM	10 to 100 nM	≥ 100 nM
CNS(=O)(=O)c1ccc(Nc2ncc(C(F)(F)F)c(-n3cc([C@@H]4CCC[C@@H]4O)cn3)n2)cc1 (single isomer, unassigned) [Example 76]	≥ 100 nM	10 to 100 nM	10 to 100 nM	≥ 100 nM
CNS(=O)(=O)c1ccc(Nc2ncc(C(F)(F)F)c(-n3cc(C4CCOC4)cn3)n2)cc1 (single isomer, unassigned) [Example 89]	10 to 100 nM	10 to 100 nM	≤ 10 nM	≥ 100 nM
CNS(=O)(=O)c1ccc(Nc2ncc(C(F)(F)F)c(-n3cc(C4CCCN4)cn3)n2)cc1 (single isomer, unassigned) [Example 92]	10 to 100 nM	≤ 10 nM	≤ 10 nM	10 to 100 nM
CNS(=O)(=O)c1ccc(Nc2ncc(C(F)(F)F)c(-n3cc(C4CCNC4)cn3)n2)cc1 (single isomer, unassigned) [Example 93]	≥ 100 nM	10 to 100 nM	≤ 10 nM	10 to 100 nM
CNS(=O)(=O)c1ccc(Nc2ncc(C(F)(F)F)c(-n3cc(C4CCN(C)C4)cn3)n2)cc1 (single isomer, unassigned) [Example 96]	10 to 100 nM	10 to 100 nM	≤ 10 nM	10 to 100 nM
CNS(=O)(=O)c1ccc(Nc2ncc(C(F)(F)F)c(-n3cc([C@H]4C[C@](C)(O)C4)cn3)n2)cc1 (single isomer, unassigned) [Example 104, 4-((4-(4-((1s,3s)-3-hydroxy-3-methylcyclobutyl)-1H-pyrazol-1-yl)-5-(trifluoromethyl)pyrimidin-2-yl)amino)-N-methylbenzenesulfonamide]	≥ 100 nM	10 to 100 nM	10 to 100 nM	≥ 100 nM
CC(O)Cc1cnn(-c2nc(NC3CCN(S(C)(=O)=O)CC3)ncc2C(F)(F)F)c1 (single isomer, unassigned) [Example 108]	10 to 100 nM	10 to 100 nM	10 to 100 nM	≥ 100 nM
CC(C)(O)c1cnn(-c2nc(NC3CCN(S(C)(=O)=O)CC3)ncc2F)c1 [Example 1, 2-(1-(5-fluoro-2-((1-(methylsulfonyl)piperidin-4-yl)amino)pyrimidin-4-yl)-1H-pyrazol-4-yl)propan-2-ol]	10 to 100 nM	10 to 100 nM	10 to 100 nM	≥ 100 nM
CNS(=O)(=O)c1ccc(Nc2ncc(C(F)(F)F)c(-n3cc(CC(C)(C)O)cn3)n2)cc1 [Example 2, 4-((4-(4-(2-hydroxy-2-methylpropyl)-1H-pyrazol-1-yl)-5-(trifluoromethyl)pyrimidin-2-yl)amino)-N-methylbenzenesulfonamide]	10 to 100 nM	10 to 100 nM	≤ 10 nM	10 to 100 nM
CNS(=O)(=O)c1ccc(Nc2ncc(C(F)(F)F)c(-n3ccc(CC(C)(C)O)n3)n2)cc1 [Example 4]	≥ 100 nM	≥ 100 nM	10 to 100 nM	≥ 100 nM
CC(C)(O)Cc1cnn(-c2nc(NC3CCN(S(C)(=O)=O)CC3)ncc2C(F)(F)F)c1 [Example 7]	10 to 100 nM	10 to 100 nM	≤ 10 nM	10 to 100 nM
CNS(=O)(=O)c1ccc(Nc2ncc(C(F)(F)F)c(-n3cc(C4CCCC4)cn3)n2)cc1 [Example 11, 4-((4-(4-cyclopentyl-1H-pyrazol-1-yl)-5-(trifluoromethyl)pyrimidin-2-yl)amino)-N-methylbenzenesulfonamide]	10 to 100 nM	≤ 10 nM	≤ 10 nM	10 to 100 nM

Next, values leading:

IC50 (CDK6/cyclinD3)	IC50 (CDK4/cyclinD3)	IC50 (CDK2/cyclinE1)	IC50 (CDK1/cyclinB1)	SMILES
10 to 100 nM	10 to 100 nM	≤ 10 nM	10 to 100 nM	CNS(=O)(=O)c1ccc(Nc2ncc(C(F)(F)F)c(-n3cc(C[C@@H](C)O)cn3)n2)cc1 (single isomer, unassigned) [Example 5]
10 to 100 nM	≥ 100 nM	10 to 100 nM	≥ 100 nM	CNS(=O)(=O)c1ccc(Nc2ncc(C(F)(F)F)c(-n3cc(C4CC4(F)F)cn3)n2)cc1 (single isomer, unassigned) [Example 52, 4-[[4-[4-(2,2-difluorocyclopropyl)pyrazol-1-yl]-5-(trifluoromethyl)pyrimidin-2-yl]amino]-N-methyl-benzenesulfonamide]
≥ 100 nM	≥ 100 nM	10 to 100 nM	≥ 100 nM	CNS(=O)(=O)c1ccc(Nc2ncc(C(F)(F)F)c(-n3cc(C4CC4(F)F)cn3)n2)cc1 (single isomer, unassigned) [Example 53, 4-[[4-[4-(2,2-difluorocyclopropyl)pyrazol-1-yl]-5-(trifluoromethyl)pyrimidin-2-yl]amino]-N-methyl-benzenesulfonamide]
≥ 100 nM	10 to 100 nM	10 to 100 nM	10 to 100 nM	CNS(=O)(=O)c1ccc(Nc2ncc(C(F)(F)F)c(-n3cc([C@H]4CCC[C@H]4O)cn3)n2)cc1 (single isomer, unassigned) [Example 77]
10 to 100 nM	10 to 100 nM	≤ 10 nM	≥ 100 nM	CNS(=O)(=O)c1ccc(Nc2ncc(C(F)(F)F)c(-n3cc([C@@H]4CC[C@@H](O)C4)cn3)n2)cc1 (single isomer, unassigned) [Example 78]
10 to 100 nM	10 to 100 nM	≤ 10 nM	10 to 100 nM	CNS(=O)(=O)c1ccc(Nc2ncc(C(F)(F)F)c(-n3cc([C@H]4CC[C@H](O)C4)cn3)n2)cc1 (single isomer, unassigned) [Example 79]
10 to 100 nM	10 to 100 nM	10 to 100 nM	≥ 100 nM	CNS(=O)(=O)c1ccc(Nc2ncc(C(F)(F)F)c(-n3cc(C4CCOC4)cn3)n2)cc1 (single isomer, unassigned) [Example 90]
≥ 100 nM	10 to 100 nM	≤ 10 nM	10 to 100 nM	CNS(=O)(=O)c1ccc(Nc2ncc(C(F)(F)F)c(-n3cc(C4CCN(C)C4)cn3)n2)cc1 (single isomer, unassigned) [Example 95]
10 to 100 nM	10 to 100 nM	10 to 100 nM	10 to 100 nM	CNS(=O)(=O)c1ccc(Nc2ncc(C(F)(F)F)c(-n3cc([C@H]4C[C@@](C)(O)C4)cn3)n2)cc1 (single isomer, unassigned) [Example 105, 4-((4-(4-((1r,3r)-3-hydroxy-3-methylcyclobutyl)-1H-pyrazol-1-yl)-5-(trifluoromethyl)pyrimidin-2-yl)amino)-N-methylbenzenesulfonamide]
10 to 100 nM	10 to 100 nM	≤ 10 nM	10 to 100 nM	CC(O)Cc1cnn(-c2nc(NC3CCN(S(C)(=O)=O)CC3)ncc2C(F)(F)F)c1 (single isomer, unassigned) [Example 107]
≥ 100 nM	10 to 100 nM	10 to 100 nM	10 to 100 nM	CNS(=O)(=O)c1ccc(Nc2ncc(C(F)(F)F)c(-n3cc(CCC(C)(C)O)cn3)n2)cc1 [Example 3]
10 to 100 nM	10 to 100 nM	≤ 10 nM	10 to 100 nM	[2H]C([2H])([2H])NS(=O)(=O)c1ccc(Nc2ncc(C(F)(F)F)c(-n3cc(CCO)cn3)n2)cc1 [Example 10]
